Measurements taken from the Kinase Knowledgebase extract (Sharma et al. 2016).

Key:
CDK2 (human) = CDK2 (human) (UniProt P24941); assay: Cell-Based Assay
CDK2 = CDK2 (UniProt P24941); assay: Enzyme Assay

Structure (SMILES)	IC50 (CDK2 (human); hct 116) [nM]	IC50 (CDK2 (human); mda-mb-435) [nM]	IC50 (CDK2 (human); sw480) [nM]	IC50 (CDK2) [nM]
CCCc1[nH]nc2c1N=C(c1ccccc1Cl)c1cc([N+](=O)[O-])ccc1N2	10000 to 30000	10000 to 30000	10000 to 30000	–
O=[N+]([O-])c1ccc2c(c1)C(c1ccccc1Cl)=Nc1c(n[nH]c1-c1ccco1)N2	10000 to 30000	–	10000 to 30000	–
Cc1[nH]nc2c1N=C(c1ccccc1F)c1cc(F)ccc1N2	–	–	10 to 1000	–
O=[N+]([O-])c1ccc2c(c1)C(c1ccccc1Cl)=Nc1c(n[nH]c1-c1nccs1)N2	–	10000 to 30000	–	–
Clc1ccc2c(c1)C(c1ccccc1Cl)=Nc1c[nH]nc1N2	–	–	–	10000 to 30000
CC(=O)Nc1ccc2c(c1)C(c1ccccc1Cl)=Nc1c(n[nH]c1C)N2	–	10 to 1000	10 to 1000	–
CN(C)c1ccc(-c2[nH]nc3c2N=C(c2ccccc2Cl)c2cc([N+](=O)[O-])ccc2N3)cc1	–	–	–	1000 to 9990
O=[N+]([O-])c1ccc2c(c1)C(c1ccccc1Cl)=Nc1c[nH]nc1N2	10000 to 30000	10000 to 30000	1100 to 9990	–
Cc1[nH]nc2c1N=C(c1ccccc1F)c1cc(C(=O)NCCO)ccc1N2	–	1100 to 9990	10 to 1000	–
O=[N+]([O-])c1ccc2c(c1)C(c1ccccc1Cl)=Nc1c(n[nH]c1C1CC1)N2	1100 to 9990	10 to 1000	1100 to 9990	–
O=[N+]([O-])c1ccc2c(c1)C(c1ccccc1Cl)=Nc1c(n[nH]c1CO)N2	–	10 to 1000	10 to 1000	–
O=Cc1[nH]nc2c1N=C(c1ccccc1Cl)c1cc([N+](=O)[O-])ccc1N2	–	10 to 1000	–	–
Cc1[nH]nc2c1N=C(c1ccccc1Cl)c1cc(NS(=O)(=O)N(C)C)ccc1N2	–	10 to 1000	1100 to 9990	–
O=[N+]([O-])c1ccc2c(c1)C(c1ccccc1Cl)=Nc1c(n[nH]c1-c1cccc3c1OCO3)N2	10000 to 30000	–	–	–
NC(=O)c1[nH]nc2c1N=C(c1ccccc1Cl)c1cc([N+](=O)[O-])ccc1N2	–	10000 to 30000	–	–
Clc1ccc2c(c1)C(c1ccccc1)=Nc1c[nH]nc1N2	–	–	–	1000 to 9990
COc1ccc2c(c1)C(c1ccccc1Cl)=Nc1c(n[nH]c1C)N2	–	1100 to 9990	1100 to 9990	–
N#Cc1cccc(-c2[nH]nc3c2N=C(c2ccccc2Cl)c2cc([N+](=O)[O-])ccc2N3)c1	–	–	–	1000 to 9990
COc1cc(O)ccc1-c1[nH]nc2c1N=C(c1ccccc1Cl)c1cc([N+](=O)[O-])ccc1N2	10000 to 30000	–	–	–
CC(C)c1[nH]nc2c1N=C(c1ccccc1Cl)c1cc([N+](=O)[O-])ccc1N2	1100 to 9990	10 to 1000	10 to 1000	–
O=[N+]([O-])c1ccc2c(c1)C(c1ccccc1)=Nc1c[nH]nc1N2	10000 to 30000	–	–	–
N#Cc1ccc2c(c1)C(c1ccccc1F)=Nc1c(n[nH]c1CO)N2	–	10 to 1000	10 to 1000	–

Structure (SMILES)	IC50 (CDK2 (human); hct 116) [nM]	IC50 (CDK2 (human); mda-mb-435) [nM]	IC50 (CDK2 (human); sw480) [nM]	IC50 (CDK2) [nM]
Cc1[nH]nc2c1N=C(c1ccccc1)c1cc(F)ccc1N2	–	10 to 1000	1100 to 9990	–
CC(C)c1[nH]nc2c1N=C(c1ccccc1Cl)c1cc(N)ccc1N2	–	1100 to 9990	–	–
CCOc1cccc(-c2[nH]nc3c2N=C(c2ccccc2Cl)c2cc([N+](=O)[O-])ccc2N3)c1	–	–	–	1000 to 9990
Cc1[nH]nc2c1N=C(c1ccccc1F)c1cc([N+](=O)[O-])ccc1N2	–	10 to 1000	10 to 1000	–
C=CC(=O)Nc1ccc2c(c1)C(c1ccccc1Cl)=Nc1c(n[nH]c1C)N2	–	10 to 1000	10 to 1000	–
CCc1ccc(-c2[nH]nc3c2N=C(c2ccccc2Cl)c2cc([N+](=O)[O-])ccc2N3)o1	–	–	–	1000 to 9990
N#Cc1[nH]nc2c1N=C(c1ccccc1Cl)c1cc([N+](=O)[O-])ccc1N2	–	10000 to 30000	–	–
Cc1ccc(-c2[nH]nc3c2N=C(c2ccccc2Cl)c2cc([N+](=O)[O-])ccc2N3)cc1	–	–	–	1000 to 9990
Fc1ccccc1C1=Nc2c[nH]nc2Nc2ccc(I)cc21	–	–	–	1000 to 9990
O=C(NCCO)c1ccc2c(c1)C(c1ccccc1F)=Nc1c[nH]nc1N2	10000 to 30000	–	–	–
Cc1[nH]nc2c1N=C(c1ccccc1F)c1cc(Cl)ccc1N2	–	–	1100 to 9990	–
COCc1[nH]nc2c1N=C(c1ccccc1Cl)c1cc([N+](=O)[O-])ccc1N2	–	1100 to 9990	–	–
C=Cc1[nH]nc2c1N=C(c1ccccc1Cl)c1cc([N+](=O)[O-])ccc1N2	–	10 to 1000	–	–
Cc1[nH]nc2c1N=C(c1ccccc1F)c1cc(C#N)ccc1N2	1100 to 9990	10 to 1000	10 to 1000	–
O=C(O)c1ccc2c(c1)C(c1ccccc1)=Nc1c[nH]nc1N2	–	–	–	1000 to 9990
O=[N+]([O-])c1ccc2c(c1)C(c1ccccc1Cl)=Nc1c(n[nH]c1-c1ccc3ccccc3c1)N2	–	–	–	1000 to 9990
O=C(c1ccc2c(c1)C(c1ccccc1F)=Nc1c[nH]nc1N2)N(CCO)CCO	–	–	–	1000 to 9990
O=[N+]([O-])c1ccc2c(c1)C(c1ccccc1)=Nc1c(n[nH]c1-c1ccc3c(c1)OCO3)N2	–	–	–	10000 to 30000
Cc1[nH]nc2c1N=C(c1ccccc1C(F)(F)F)c1cc([N+](=O)[O-])ccc1N2	–	–	10 to 1000	–
Cc1[nH]nc2c1N=C(c1ccccc1F)c1cc(I)ccc1N2	–	–	1100 to 9990	–
CCOC(=O)c1ccc2c(c1)C(c1ccccc1F)=Nc1c(n[nH]c1C)N2	1100 to 9990	1100 to 9990	1100 to 9990	–
O=[N+]([O-])c1ccc2c(c1)C(c1ccccc1Cl)=Nc1c(n[nH]c1-c1cccc(Oc3ccccc3)c1)N2	–	–	–	10000 to 30000

Structure (SMILES)	IC50 (CDK2 (human); hct 116) [nM]	IC50 (CDK2 (human); mda-mb-435) [nM]	IC50 (CDK2 (human); sw480) [nM]	IC50 (CDK2) [nM]
Cc1cn[nH]c1-c1[nH]nc2c1N=C(c1ccccc1Cl)c1cc([N+](=O)[O-])ccc1N2	1100 to 9990	1100 to 9990	10 to 1000	–
O=[N+]([O-])c1ccc2c(c1)C(c1ccccc1Cl)=Nc1c(n[nH]c1-c1ccccc1)N2	10000 to 30000	–	10000 to 30000	–
Cc1[nH]nc2c1N=C(c1ccccc1F)c1cc(C(=O)N3CCOCC3)ccc1N2	–	1100 to 9990	10 to 1000	–
Cc1cccc(-c2[nH]nc3c2N=C(c2ccccc2Cl)c2cc([N+](=O)[O-])ccc2N3)c1	–	–	–	1000 to 9990
O=[N+]([O-])c1ccc2c(c1)C(c1ccccc1Cl)=Nc1c(n[nH]c1-c1ccc(OC(F)(F)F)cc1)N2	10000 to 30000	–	–	–
O=C(O)c1ccc2c(c1)C(c1ccccc1F)=Nc1c[nH]nc1N2	–	–	–	1000 to 9990
O=[N+]([O-])c1ccc2c(c1)C(c1ccccc1)=Nc1c(n[nH]c1-c1ccccc1F)N2	–	–	–	10000 to 30000
CN(C)Cc1[nH]nc2c1N=C(c1ccccc1Cl)c1cc([N+](=O)[O-])ccc1N2	–	10000 to 30000	–	–
Cc1[nH]nc2c1N=C(c1ccccc1Cl)c1cc(NS(=O)(=O)NCCl)ccc1N2	–	1100 to 9990	1100 to 9990	–
Cc1ccc(-c2[nH]nc3c2N=C(c2ccccc2Cl)c2cc([N+](=O)[O-])ccc2N3)s1	–	–	–	1000 to 9990
Fc1ccccc1C1=Nc2c[nH]nc2Nc2ccc(Cl)cc21	–	–	–	1000 to 9990
Clc1ccccc1C1=Nc2c[nH]nc2Nc2ccccc21	10000 to 30000	–	10000 to 30000	–
COc1ccccc1-c1[nH]nc2c1N=C(c1ccccc1Cl)c1cc([N+](=O)[O-])ccc1N2	–	–	–	10000 to 30000
Cc1[nH]nc2c1N=C(c1ccccc1F)c1cc(C(=O)NCCN3CCOCC3)ccc1N2	–	1100 to 9990	10 to 1000	–
Cc1[nH]nc2c1N=C(c1ccccc1)c1cc(Br)ccc1N2	–	–	10000 to 30000	–
CCc1[nH]nc2c1N=C(c1ccccc1Cl)c1cc([N+](=O)[O-])ccc1N2	10 to 1000	10 to 1000	10 to 1000	–
CSc1ccc(-c2[nH]nc3c2N=C(c2ccccc2Cl)c2cc([N+](=O)[O-])ccc2N3)cc1	10000 to 30000	–	–	–
Cc1[nH]nc2c1N=C(c1ccccc1F)c1cc(C(N)=O)ccc1N2	–	–	10 to 1000	–
O=[N+]([O-])c1ccc2c(c1)C(c1ccccc1)=Nc1c(n[nH]c1-c1ncc[nH]1)N2	–	–	–	1000 to 9990
Cc1[nH]nc2c1N=C(c1ccccc1Cl)c1cc(NS(=O)(=O)N3CCOCC3)ccc1N2	–	1100 to 9990	1100 to 9990	–
Cc1[nH]nc2c1N=C(c1ccccc1)c1cc(Cl)ccc1N2	–	1100 to 9990	1100 to 9990	–
O=[N+]([O-])c1ccc2c(c1)C(c1ccccc1Cl)=Nc1c(n[nH]c1-c1ccc[nH]1)N2	1100 to 9990	–	1100 to 9990	–

Structure (SMILES)	IC50 (CDK2 (human); hct 116) [nM]	IC50 (CDK2 (human); mda-mb-435) [nM]	IC50 (CDK2 (human); sw480) [nM]	IC50 (CDK2) [nM]
O=[N+]([O-])c1ccc2c(c1)C(c1ccccc1Cl)=Nc1c(n[nH]c1-c1cncc3ccccc13)N2	10000 to 30000	–	–	–
Cc1[nH]nc2c1N=C(c1ccccc1F)c1ccccc1N2	–	1100 to 9990	10 to 1000	–
Cc1[nH]nc2c1N=C(c1ccccc1Cl)c1ccccc1N2	–	1100 to 9990	1100 to 9990	–
O=C(c1ccc2c(c1)C(c1ccccc1F)=Nc1c[nH]nc1N2)N1CCOCC1	10000 to 30000	–	10 to 1000	–
Cc1[nH]nc2c1N=C(c1ccccc1Cl)c1cc(N)ccc1N2	–	10 to 1000	10 to 1000	–
Cc1[nH]nc2c1N=C(c1ccccc1Cl)c1cc(NS(C)(=O)=O)ccc1N2	–	10 to 1000	10 to 1000	–
O=[N+]([O-])c1ccc2c(c1)C(c1ccccc1Cl)=Nc1c(n[nH]c1C(F)(F)F)N2	–	1100 to 9990	–	–
NC(=O)c1ccc2c(c1)C(c1ccccc1F)=Nc1c[nH]nc1N2	1100 to 9990	–	1100 to 9990	–
Cc1[nH]nc2c1N=C(c1ccccc1)c1cc([N+](=O)[O-])ccc1N2	–	10 to 1000	10 to 1000	–
O=[N+]([O-])c1ccc2c(c1)C(c1ccccc1Cl)=Nc1c(n[nH]c1-c1ccncc1)N2	10000 to 30000	–	10000 to 30000	–
O=[N+]([O-])c1ccc2c(c1)C(c1ccccc1F)=Nc1c[nH]nc1N2	10000 to 30000	10000 to 30000	1100 to 9990	–
O=[N+]([O-])c1ccc2c(c1)C(c1ccccc1Cl)=Nc1c(n[nH]c1-c1cccc3ccccc13)N2	10000 to 30000	–	10000 to 30000	–
O=[N+]([O-])c1ccc2c(c1)C(c1ccccc1Cl)=Nc1c(n[nH]c1-c1cccnc1)N2	10000 to 30000	–	10000 to 30000	–
NNC(=O)c1[nH]nc2c1N=C(c1ccccc1Cl)c1cc([N+](=O)[O-])ccc1N2	1100 to 9990	–	10000 to 30000	–
N#Cc1ccc2c(c1)C(c1ccccc1F)=Nc1c[nH]nc1N2	1100 to 9990	1100 to 9990	1100 to 9990	–
Cc1[nH]nc2c1N=C(c1ccccc1Cl)c1cc([N+](=O)[O-])ccc1N2	10 to 1000	10 to 1000	10 to 1000	–
O=[N+]([O-])c1ccc2c(c1)C(c1ccccc1Cl)=Nc1c(n[nH]c1-c1c[nH]cn1)N2	–	1100 to 9990	–	–
Cc1[nH]nc2c1N=C(c1ccccc1Cl)c1cc(Cl)ccc1N2	–	1100 to 9990	1100 to 9990	–
O=[N+]([O-])c1ccc2c(c1)C(c1ccccc1)=Nc1c(n[nH]c1C1CC1)N2	10000 to 30000	–	–	–
O=[N+]([O-])c1ccc2c(c1)C(c1ccccc1Cl)=Nc1c(n[nH]c1-c1cc[nH]n1)N2	–	1100 to 9990	–	–
